Assay results from patent US9920030B2 (priority 2006, dated 2018).

Key:
Type in all cases: in vivo
[1] = tested on: Phytophthora infestans (the causal agent of tomato late blight); experiment: whole plant or invertebrate
[2] = tested on: Plasmopara vilicola (the causal agent of grape downy mildew); experiment: Test A: grape downy mildew, test suspension sprayed on grape seedlings after inoculation, visual disease rating
Summary of the method: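 Compounds dissolved in acetone (3% of final volume), suspended in 50/50 acetone/water with 250 ppm Trem 014; 200 ppm to run-off equals 500 g/ha. Seedlings inoculated, held saturated at 20 °C 24 h, then sprayed; 5 days at 20 °C, 24 h saturated, then visual rating, 0–100% control versus untreated.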

[3] = tested on: Phytophthora infestans (the causal agent of tomato late blight); experiment: whole plant or invertebrate; remark: listed apart in the source
[4] = compounds without asterisk (application rate not given), 100 = 100% disease control, 0 = no control relative to the controls

Structure (SMILES)	Percent Disease Control, Test C ([1]; * tested at 40 ppm) [%]	Percent Disease Control, Test A ([2]; * tested at 40 ppm) [%]	Percent Disease Control, Test B ([3]; * tested at 40 ppm) [%]	also measured
Cc1cc(C(F)(F)F)nn1CC(=O)N1CCC(c2nc(C3=NOC(N4C(=O)C(=O)c5ccccc54)C3)cs2)CC1 (stereo not drawn) [Compound 222]				Percent Disease Control, Test C [1, 4]: 100%; Percent Disease Control, Test A [2, 4]: 100%; Percent Disease Control, Test B [3, 4]: 100%
Cc1cc(C(F)(F)F)nn1CC(=O)N1CCC(c2nc(C3=NOC(N4C(=O)OC(C)(C)C4=O)C3)cs2)CC1 (stereo not drawn) [Compound 223]				Percent Disease Control, Test C [1, 4]: 100%; Percent Disease Control, Test A [2, 4]: 100%; Percent Disease Control, Test B [3, 4]: 100%
C=CN1C(=O)C2ON=C(c3csc(C4CCN(C(=O)Cn5nc(C(F)(F)F)cc5C)CC4)n3)C2C1=O (stereo not drawn) [Compound 224]				Percent Disease Control, Test C [1, 4]: 0%; Percent Disease Control, Test A [2, 4]: 0%; Percent Disease Control, Test B [3, 4]: 63%
Cc1cc(C(F)(F)F)nn1CC(=O)N1CCC(c2nc(C3=NOC(C(=O)N4CCOCC4)C3)cs2)CC1 (stereo not drawn) [Compound 226]				Percent Disease Control, Test C [1, 4]: 99%; Percent Disease Control, Test A [2, 4]: 83%; Percent Disease Control, Test B [3, 4]: 100%
CCC(=O)N1N=C(c2csc(C3CCN(C(=O)Cn4nc(C(F)(F)F)cc4C)CC3)n2)OC12CCCc1ccccc12 (stereo not drawn) [Compound 227]				Percent Disease Control, Test C [1, 4]: 100%; Percent Disease Control, Test A [2, 4]: 100%; Percent Disease Control, Test B [3, 4]: 100%
Cc1cc(C(F)(F)F)nn1CC(=O)N1CCC(c2nc(C3=NN(C(=O)C(C)C)C4(CCCc5ccccc54)O3)cs2)CC1 (stereo not drawn) [Compound 228]				Percent Disease Control, Test C [1, 4]: 100%; Percent Disease Control, Test A [2, 4]: 99%; Percent Disease Control, Test B [3, 4]: 100%
O=C(Cn1nc(C(F)(F)F)cc1Cl)N1CCC(c2nc(C3=NO[C@]4(CCc5ccccc54)C3)cs2)CC1 [Compound 232, 2-[5-chloro-3-(trifluoromethyl)-1H-pyrazol-1-yl]-1-[4-[4-[(1R)-2,3-dihydrospiro[1-indene-1,5′(4′H)-isoxazol]-3′-yl]-2-thiazolyl]-1-piperidinyl]ethanone]				Percent Disease Control, Test C ([1]; ** tested at l0 ppm): 100%; Percent Disease Control, Test A ([2]; ** tested at l0 ppm): 100%; Percent Disease Control, Test B ([3]; ** tested at l0 ppm): 100%
Cc1cc(C(F)(F)F)nn1CC(=O)N1CCC(c2nc(C3=NOC(N4Cc5ccccc5C4=O)C3)cs2)CC1 (stereo not drawn) [Compound 233]	100	100	100	
Cc1cc(C(F)(F)F)nn1CC(=O)N1CCC(c2nc(C3=NOC(N4C(=O)CN(C)C4=O)C3)cs2)CC1 (stereo not drawn) [Compound 234]	100	99	100	
Cc1cc(C(F)(F)F)nn1CC(=O)N1CCC(c2nc(C3=NOC(N4C(=O)N(C)C(C)(C)C4=O)C3)cs2)CC1 (stereo not drawn) [Compound 235]	100	99	100	
Cc1cc(C(F)(F)F)nn1CC(=O)N1CCC(c2nc(C3=NOC(N4C(=O)c5ccccc5S4(=O)=O)C3)cs2)CC1 (stereo not drawn) [Compound 236]	100	100	100	
CCOC(=O)c1cc(C)nn1CC(=O)N1CCC(c2nc(C3=NOC(c4ccccc4)C3)cs2)CC1 (stereo not drawn) [Compound 238]	100	100	100	
CCOc1cc(C(F)(F)F)nn1CC(=O)N1CCC(c2nc(C3=NOC(c4ccccc4)C3)cs2)CC1 (stereo not drawn) [Compound 241]	100	100	100	
Cc1cc(C(F)(F)F)nn1CC(=O)N1CCC(c2nc(N3CC(c4ccccc4)OC3=O)cs2)CC1 (stereo not drawn) [Compound 242]	85	99	100	
Cc1cc(C(F)(F)F)nn1CC(=O)N1CCC(c2nc(C3=NOC(N4C(=O)CCCC4=O)C3)cs2)CC1 (stereo not drawn) [Compound 243]				Percent Disease Control, Test C ([1]; ** tested at l0 ppm): 100%; Percent Disease Control, Test A ([2]; ** tested at l0 ppm): 99%; Percent Disease Control, Test B ([3]; ** tested at l0 ppm): 100%
Cc1cc(C(F)(F)F)nn1CC(=O)N1CCC(c2nc(C3=NOC(n4oc(=O)n(C(C)C)c4=O)C3)cs2)CC1 (stereo not drawn) [Compound 244]	99	98	100	
Cc1cc(C(F)(F)F)nn1CC(=O)N1CCC(c2nc(-c3ccc(F)cc3)cs2)CC1 [Compound 245]	0	99	74	
Cc1cc(C(F)(F)F)nn1CC(=O)N1CCC(c2nc(-c3ccc(C(C)(C)C)cc3)cs2)CC1 [Compound 246]	40	99	79	
Cc1cc(C(F)(F)F)nn1CC(=O)N1CCC(c2nc(-c3ccc(C#N)cc3)cs2)CC1 [Compound 247]	88	99	100	
Cc1cc(C(F)(F)F)nn1CC(=O)N1CCC(c2nc(-c3ccc([N+](=O)[O-])cc3)cs2)CC1 [Compound 248]	26	90	73	
Cc1cc(C(F)(F)F)nn1CC(=O)N1CCC(c2nc(-c3ccc(Br)cc3)cs2)CC1 [Compound 249]	0	99	64	
Cc1cc(C(F)(F)F)nn1CC(=O)N1CCC(c2nc(-c3ccc(I)cc3)cs2)CC1 [Compound 250]	0	86	58	
Cc1cc(C(F)(F)F)nn1CC(=O)N1CCC(c2nc(C3=NOC4(CCCc5cc(C#N)ccc54)C3)cs2)CC1 (stereo not drawn) [Compound 251]	99	99	100	
Cc1cc(C(F)(F)F)nn1CC(=O)N1CCC(c2nc(C3=NOC4(CC(=O)N(c5ccccc5)C4=O)C3)cs2)CC1 (stereo not drawn) [Compound 252]	97	88	91	
C[C@]1(c2ccccc2)CC(c2csc(C3CCN(C(=O)Cn4nc(C(F)(F)F)cc4C(F)(F)F)CC3)n2)=NO1 [Compound 260, 2-[3,5-bis(triflyoromethyl)-1H-pyrazol-1-yl]-1-[4-[4-[(5R)-4,5-dihydro-5-methyl-5-phenyl-3-isoxazolyl]-2-thiazolyl]-1-piperidinyl]ethanone]				Percent Disease Control, Test C ([1]; ** tested at l0 ppm): 96%; Percent Disease Control, Test A ([2]; ** tested at l0 ppm): 100%; Percent Disease Control, Test B ([3]; ** tested at l0 ppm): 100%
Cc1cc(C(F)(F)F)nn1CC(=O)N1CCC(c2nc(C3=NOC(Cc4ccccc4S(N)(=O)=O)C3)cs2)CC1 (stereo not drawn) [Compound 262]	91	79	100	
CC(=O)Oc1ccccc1C1CC(c2csc(C3CCN(C(=O)Cn4nc(C(F)(F)F)cc4C)CC3)n2)=NO1 (stereo not drawn) [Compound 263]	83	99	84	
Cc1cc(C(F)(F)F)nn1CC(=O)N1CCC(c2nc(C3=NOC(N(C)C(=O)c4ccccc4)C3)cs2)CC1 (stereo not drawn) [Compound 264]	88	99	100	
Cc1cc(C(F)(F)F)nn1CC(=O)N1CCC(c2nc(C3=NOC4(CC(=O)N(C)C4=O)C3)cs2)CC1 (stereo not drawn) [Compound 267]				Percent Disease Control, Test C [1, 4]: 100%; Percent Disease Control, Test A [2, 4]: 100%; Percent Disease Control, Test B [3, 4]: 100%
